Calls of active or inactive are those of the source.
Tests used:
HeLa = assay: HeLa cell cytotoxicity, dose response, cytotoxicity control for MITF activator project, CellTiter-Glo luminescence, cherry-pick samples (AID 540259); type: functional, cell-based; conditions: Homo sapiens
[1] = control 3'UTR Renilla luciferase suppression, dose response, counter-screen for Shn3 inhibitor project, cell-based, Clone20-Shn3RL, cherry-picked (AID 624133); type: functional
[2] = target: Heat shock protein HSP 90-alpha (Homo sapiens, UniProt P07900); type: functional, organism-based
HEK293 [3] = assay: inhibitors of LMP1-driven NF-kB reporter, dose response, cell-based, HEK293, luciferase, cherry-pick (AID 588343); type: functional; conditions: Homo sapiens
[4] = Counterscreen for AddAB inhibitors: absorbance-based bacterial cell-based high throughput dose response assay for inhibitors of bacterial viability. [Related pubchem assays (depositor defined):AID435030, AID449728, AID449731, AID488942, AID488955, AID488956]; type: functional
cells [5] = type: functional, cell-based
[6] = HepG2 cell cytotoxicity, dose response, cytotoxicity control for Shn3 inhibitor project, CellTiter-Glo, cherry-picked (AID 624134); type: functional, cell-based
Exodeoxyribonuclease V = target: T1, Exodeoxyribonuclease V (Escherichia coli (strain K12), UniProt P04993+P07648+P08394); assay: E. coli RecBCD inhibitors, dose response, counter-screen for AddAB inhibitor project, absorbance, V66 E. coli, mutant T4 phage (AID 492957); type: functional, cell-based, Escherichia coli str. K-12 substr. MG1655
T1 sequence (P04993 whole entry): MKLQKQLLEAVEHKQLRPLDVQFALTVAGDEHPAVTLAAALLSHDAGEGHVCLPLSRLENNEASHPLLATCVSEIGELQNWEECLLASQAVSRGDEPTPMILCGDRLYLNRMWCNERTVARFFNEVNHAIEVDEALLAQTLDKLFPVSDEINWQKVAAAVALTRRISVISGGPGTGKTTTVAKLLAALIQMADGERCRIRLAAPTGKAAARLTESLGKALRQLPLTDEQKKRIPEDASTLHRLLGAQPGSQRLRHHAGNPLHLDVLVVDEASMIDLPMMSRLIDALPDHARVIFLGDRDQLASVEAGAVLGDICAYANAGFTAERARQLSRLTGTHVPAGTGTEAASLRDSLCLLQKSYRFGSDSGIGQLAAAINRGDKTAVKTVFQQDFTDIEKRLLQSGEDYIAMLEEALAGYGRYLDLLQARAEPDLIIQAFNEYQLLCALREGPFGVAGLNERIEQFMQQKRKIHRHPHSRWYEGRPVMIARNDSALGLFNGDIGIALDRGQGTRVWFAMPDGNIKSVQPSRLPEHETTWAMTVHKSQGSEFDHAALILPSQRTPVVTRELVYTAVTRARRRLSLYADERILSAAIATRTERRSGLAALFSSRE
T1 sequence (P07648 whole entry): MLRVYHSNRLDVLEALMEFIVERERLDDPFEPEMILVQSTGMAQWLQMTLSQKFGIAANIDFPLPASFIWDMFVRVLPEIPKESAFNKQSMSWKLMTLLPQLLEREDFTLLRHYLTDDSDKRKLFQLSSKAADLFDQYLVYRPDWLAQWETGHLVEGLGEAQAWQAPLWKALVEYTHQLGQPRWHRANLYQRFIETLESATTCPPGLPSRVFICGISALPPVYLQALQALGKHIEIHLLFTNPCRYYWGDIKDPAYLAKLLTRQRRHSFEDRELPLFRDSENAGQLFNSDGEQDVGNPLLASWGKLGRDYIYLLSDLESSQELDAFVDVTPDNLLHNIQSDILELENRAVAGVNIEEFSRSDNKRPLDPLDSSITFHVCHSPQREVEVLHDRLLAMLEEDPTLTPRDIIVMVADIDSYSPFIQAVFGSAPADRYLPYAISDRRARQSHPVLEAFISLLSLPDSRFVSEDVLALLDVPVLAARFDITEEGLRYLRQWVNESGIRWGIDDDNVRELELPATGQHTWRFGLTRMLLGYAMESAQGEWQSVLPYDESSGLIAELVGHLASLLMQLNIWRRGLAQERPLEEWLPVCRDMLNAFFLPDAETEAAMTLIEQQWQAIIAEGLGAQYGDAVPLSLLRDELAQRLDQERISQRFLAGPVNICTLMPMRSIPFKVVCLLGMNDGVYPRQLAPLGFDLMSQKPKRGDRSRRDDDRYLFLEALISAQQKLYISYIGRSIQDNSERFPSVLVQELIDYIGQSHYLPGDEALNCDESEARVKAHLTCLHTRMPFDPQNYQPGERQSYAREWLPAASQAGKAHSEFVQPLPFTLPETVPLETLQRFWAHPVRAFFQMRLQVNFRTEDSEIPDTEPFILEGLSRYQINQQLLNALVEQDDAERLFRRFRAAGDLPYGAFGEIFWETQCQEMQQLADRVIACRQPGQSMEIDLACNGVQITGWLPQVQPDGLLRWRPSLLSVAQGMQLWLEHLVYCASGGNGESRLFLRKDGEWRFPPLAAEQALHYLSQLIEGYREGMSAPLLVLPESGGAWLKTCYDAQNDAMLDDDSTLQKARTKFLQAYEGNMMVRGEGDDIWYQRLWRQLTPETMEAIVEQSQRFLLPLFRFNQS
T1 sequence (P08394 whole entry): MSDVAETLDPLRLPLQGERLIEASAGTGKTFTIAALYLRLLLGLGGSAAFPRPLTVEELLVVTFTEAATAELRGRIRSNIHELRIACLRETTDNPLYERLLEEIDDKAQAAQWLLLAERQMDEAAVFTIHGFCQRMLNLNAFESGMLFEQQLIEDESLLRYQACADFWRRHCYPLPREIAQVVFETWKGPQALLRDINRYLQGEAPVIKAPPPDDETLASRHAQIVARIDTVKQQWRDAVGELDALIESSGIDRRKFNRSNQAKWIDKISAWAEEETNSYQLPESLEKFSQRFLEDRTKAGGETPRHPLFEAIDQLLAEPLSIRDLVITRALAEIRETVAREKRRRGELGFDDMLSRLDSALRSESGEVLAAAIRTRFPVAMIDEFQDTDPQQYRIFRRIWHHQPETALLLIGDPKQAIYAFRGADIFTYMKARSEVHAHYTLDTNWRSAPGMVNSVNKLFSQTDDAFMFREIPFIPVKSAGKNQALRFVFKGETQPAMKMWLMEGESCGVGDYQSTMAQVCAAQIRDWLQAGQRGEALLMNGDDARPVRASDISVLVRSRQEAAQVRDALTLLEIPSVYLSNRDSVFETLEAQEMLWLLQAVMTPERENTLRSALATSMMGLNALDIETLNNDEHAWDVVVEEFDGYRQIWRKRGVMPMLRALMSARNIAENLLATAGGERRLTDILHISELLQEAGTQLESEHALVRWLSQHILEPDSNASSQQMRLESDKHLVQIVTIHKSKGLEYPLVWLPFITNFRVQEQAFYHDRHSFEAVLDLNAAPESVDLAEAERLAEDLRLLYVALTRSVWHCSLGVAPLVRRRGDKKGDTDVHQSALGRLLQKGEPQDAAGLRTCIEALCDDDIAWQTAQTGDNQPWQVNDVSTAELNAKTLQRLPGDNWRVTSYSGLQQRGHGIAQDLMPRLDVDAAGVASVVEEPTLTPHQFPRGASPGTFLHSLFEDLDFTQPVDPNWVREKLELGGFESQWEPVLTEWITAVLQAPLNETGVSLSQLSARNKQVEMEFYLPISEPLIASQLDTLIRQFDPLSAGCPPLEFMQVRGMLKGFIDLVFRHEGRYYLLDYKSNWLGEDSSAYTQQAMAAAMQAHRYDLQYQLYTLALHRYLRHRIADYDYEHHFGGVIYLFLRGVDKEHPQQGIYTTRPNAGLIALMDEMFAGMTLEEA

[7] = Shn3 3'UTR reporter inhibitors, dose response, cell-based, Clone20 osteoblasts, firefly luciferase, cherry-picked (AID 624132); type: functional;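 also: firefly luciferase luminescence from reporter carrying the Shn3 3'UTR in osteoblasts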
cells [8] = type: functional, cell-based; remark: listed apart in the source
cells [9] = type: functional
[10] = target: Nuclear receptor subfamily 5 group A member 2 (Homo sapiens, UniProt O00482); type: functional, cell-based;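 also: HEK293T cells transfected with LRH-1 and a StAR promoter luciferase reporter; potency for inhibitors that lower LRH-1 driven reporter light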
Chain of Nuclear receptor subfamily 5 group A member 2 (O00482 whole entry): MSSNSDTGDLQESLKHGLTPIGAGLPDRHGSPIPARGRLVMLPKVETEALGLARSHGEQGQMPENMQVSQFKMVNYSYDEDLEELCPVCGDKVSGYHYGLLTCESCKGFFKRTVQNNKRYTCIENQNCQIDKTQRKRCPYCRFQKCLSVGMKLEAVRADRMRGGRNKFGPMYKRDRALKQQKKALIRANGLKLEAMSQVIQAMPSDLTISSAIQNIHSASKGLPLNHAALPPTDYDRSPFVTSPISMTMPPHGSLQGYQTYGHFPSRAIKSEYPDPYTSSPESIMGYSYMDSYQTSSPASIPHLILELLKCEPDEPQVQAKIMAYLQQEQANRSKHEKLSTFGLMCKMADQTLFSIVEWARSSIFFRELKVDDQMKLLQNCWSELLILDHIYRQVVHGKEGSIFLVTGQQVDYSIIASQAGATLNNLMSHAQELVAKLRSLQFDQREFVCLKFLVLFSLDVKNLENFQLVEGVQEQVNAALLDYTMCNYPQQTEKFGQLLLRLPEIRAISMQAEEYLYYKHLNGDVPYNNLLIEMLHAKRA

[11] = StAR promoter reporter inhibition counter-screen, dose response, counter-screen for LRH-1 inverse agonist project, cell-based, luminescence, luciferase reporter (AID 651969); type: functional
Steroidogenic factor 1 = Steroidogenic factor 1 (Homo sapiens, UniProt Q13285); assay: Counterscreen for inverse agonists of the liver receptor homolog-1 (LRH-1; NR5A2): Luminescence-based cell-based high throughput dose response assay to identify inverse agonists of the Steroidogenic Factor 1 Nuclear Receptor (SF1; NR5A1).; type: functional
Chain of Steroidogenic factor 1 (Q13285 whole entry): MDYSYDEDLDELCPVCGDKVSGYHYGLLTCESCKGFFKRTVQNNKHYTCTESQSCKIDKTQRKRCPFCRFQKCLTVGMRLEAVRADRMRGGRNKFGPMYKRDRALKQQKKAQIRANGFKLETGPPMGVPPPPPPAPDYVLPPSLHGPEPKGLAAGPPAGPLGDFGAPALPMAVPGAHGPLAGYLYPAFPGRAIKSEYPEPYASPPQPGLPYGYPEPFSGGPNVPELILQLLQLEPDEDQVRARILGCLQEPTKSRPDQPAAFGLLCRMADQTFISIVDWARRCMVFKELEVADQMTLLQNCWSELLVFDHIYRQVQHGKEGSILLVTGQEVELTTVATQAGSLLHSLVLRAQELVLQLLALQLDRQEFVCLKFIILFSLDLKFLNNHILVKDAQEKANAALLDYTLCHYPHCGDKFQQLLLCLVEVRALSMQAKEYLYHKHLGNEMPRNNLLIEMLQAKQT

[12] = Vero E6 cell cytotoxicity, dose response, cytotoxicity control for non-replicating M. tuberculosis project, secondary assay (AID 492998); type: functional, VeroE6; conditions: Vero C1008
[13] = THP-1 cell cytotoxicity, dose response, cytotoxicity control for non-replicating M. tuberculosis project (AID 489025); type: functional
HEK293 [14] = assay: cells; type: functional, cell-based; conditions: Homo sapiens
[15] = Luminescence Cell-Based Dose Confirmation HTS to Identify Inhibitors of Platelet Dense Granule Release. [Related pubchem assays: 1663 (Primary HTS), 1678 (Summary of Project)]; type: functional
Phospholipase A2 = Phospholipase A2 (Homo sapiens, UniProt P04054); type: functional;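 also: confirmatory dose-response counterscreen on phospholipase A2, testing hits that came from an ultra-high-throughput screen for ATG4B inhibitors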
Chain of Phospholipase A2 (P04054 whole entry): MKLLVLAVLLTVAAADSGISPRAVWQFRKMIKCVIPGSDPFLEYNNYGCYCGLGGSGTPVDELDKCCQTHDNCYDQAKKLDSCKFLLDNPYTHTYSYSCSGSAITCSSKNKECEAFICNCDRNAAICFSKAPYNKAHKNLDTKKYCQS

HEK293 [16] = assay: cells; type: functional, cell-based; conditions: Homo sapiens; remark: listed apart in the source
HEK293 [17] = assay: NOD2 signaling inhibitors in MDP-stimulated cells, cell-based, uHTS, luminescence (AID 2001); type: functional; conditions: Homo sapiens
HEK293 [18] = assay: NOD1 signaling inhibitors, primary screen, cell-based, luminescence, uHTS (AID 1578); type: functional; conditions: Homo sapiens
[19] = target: Nucleotide-binding oligomerization domain-containing protein 2 (Homo sapiens, UniProt Q9HC29); assay: NOD2 signaling inhibitors, cell-based, luminescence, uHTS, HEK293 (AID 1566); type: functional
Chain of Nucleotide-binding oligomerization domain-containing protein 2 (Q9HC29 whole entry, the tested form may be a part): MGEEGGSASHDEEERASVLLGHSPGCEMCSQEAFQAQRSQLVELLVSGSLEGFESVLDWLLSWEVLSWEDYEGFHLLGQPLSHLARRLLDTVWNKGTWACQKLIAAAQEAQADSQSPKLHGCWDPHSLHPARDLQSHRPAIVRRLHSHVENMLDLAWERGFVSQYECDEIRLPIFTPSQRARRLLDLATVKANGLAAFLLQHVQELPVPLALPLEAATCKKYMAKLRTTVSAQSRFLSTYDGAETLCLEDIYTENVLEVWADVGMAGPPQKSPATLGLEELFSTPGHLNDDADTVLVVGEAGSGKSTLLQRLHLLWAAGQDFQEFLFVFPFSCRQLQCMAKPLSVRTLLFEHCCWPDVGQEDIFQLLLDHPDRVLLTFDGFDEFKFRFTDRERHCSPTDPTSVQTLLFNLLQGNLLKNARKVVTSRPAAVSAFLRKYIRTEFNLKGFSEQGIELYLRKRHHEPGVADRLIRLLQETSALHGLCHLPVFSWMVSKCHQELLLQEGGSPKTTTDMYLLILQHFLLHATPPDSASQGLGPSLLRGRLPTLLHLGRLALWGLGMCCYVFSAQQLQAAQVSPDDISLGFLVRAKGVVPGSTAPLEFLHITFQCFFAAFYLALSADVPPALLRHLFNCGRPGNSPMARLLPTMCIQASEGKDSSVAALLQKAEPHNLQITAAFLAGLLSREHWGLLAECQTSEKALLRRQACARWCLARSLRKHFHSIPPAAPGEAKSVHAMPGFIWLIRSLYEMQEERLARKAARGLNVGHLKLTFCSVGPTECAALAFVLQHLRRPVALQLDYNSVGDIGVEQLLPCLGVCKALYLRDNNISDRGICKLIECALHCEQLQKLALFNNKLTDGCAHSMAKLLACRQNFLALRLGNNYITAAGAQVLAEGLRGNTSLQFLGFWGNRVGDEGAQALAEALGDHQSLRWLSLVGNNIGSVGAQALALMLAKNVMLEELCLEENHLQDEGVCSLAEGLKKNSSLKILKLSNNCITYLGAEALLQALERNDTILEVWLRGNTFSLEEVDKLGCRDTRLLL

Cysteine protease ATG4B = target: T2, Cysteine protease ATG4B (Homo sapiens, UniProt Q9Y4P1); type: functional;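 also: Fluorescence-based dose-response confirmation assay measuring inhibition of ATG4B activity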
T2 sequence (Q9Y4P1 whole entry): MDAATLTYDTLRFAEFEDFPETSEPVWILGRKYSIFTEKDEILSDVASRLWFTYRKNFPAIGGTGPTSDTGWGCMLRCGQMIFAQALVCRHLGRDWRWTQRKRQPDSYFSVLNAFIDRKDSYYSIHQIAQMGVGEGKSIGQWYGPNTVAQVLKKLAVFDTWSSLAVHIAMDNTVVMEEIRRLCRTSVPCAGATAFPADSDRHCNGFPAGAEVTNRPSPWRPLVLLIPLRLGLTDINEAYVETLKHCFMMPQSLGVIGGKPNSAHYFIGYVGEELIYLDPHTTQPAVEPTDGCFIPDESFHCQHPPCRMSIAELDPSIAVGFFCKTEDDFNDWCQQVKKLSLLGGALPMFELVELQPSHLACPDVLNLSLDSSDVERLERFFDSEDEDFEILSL

[20] = target: Luciferin 4-monooxygenase (Photinus pyralis, UniProt P08659); assay: firefly luciferase enzyme inhibitors, dose response, biochemical, luminescence (AID 1891)
Chain of Luciferin 4-monooxygenase (P08659 whole entry): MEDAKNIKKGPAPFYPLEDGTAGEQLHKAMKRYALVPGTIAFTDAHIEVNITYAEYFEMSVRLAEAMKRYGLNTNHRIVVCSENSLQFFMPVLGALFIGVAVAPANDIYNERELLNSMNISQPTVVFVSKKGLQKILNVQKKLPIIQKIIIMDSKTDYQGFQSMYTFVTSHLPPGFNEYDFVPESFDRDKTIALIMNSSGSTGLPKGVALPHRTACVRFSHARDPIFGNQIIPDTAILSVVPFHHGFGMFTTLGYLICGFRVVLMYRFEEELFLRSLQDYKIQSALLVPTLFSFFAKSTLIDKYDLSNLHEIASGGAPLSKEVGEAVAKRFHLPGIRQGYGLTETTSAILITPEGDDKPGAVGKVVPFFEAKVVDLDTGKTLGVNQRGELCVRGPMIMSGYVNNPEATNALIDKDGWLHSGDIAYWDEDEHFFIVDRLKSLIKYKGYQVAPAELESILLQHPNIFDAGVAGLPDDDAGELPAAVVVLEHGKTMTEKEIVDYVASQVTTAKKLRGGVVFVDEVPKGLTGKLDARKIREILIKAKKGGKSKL

[21] = cytotoxicity in HEK-293T cells, dose response, cytotoxicity control for BCR NF-kB inhibitor project, luminescence, B-cell screen hits (AID 489021); type: functional, cell-based;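 also: HEK-293T cells carrying an NF-kB luciferase reporter; cells exposed to compound for about 14 hours before viability readout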
HEK293 [22] = assay: cells; type: functional, cell-based; conditions: Homo sapiens; remark: listed apart in the source
CAAX prenyl protease 2 = target: T3, CAAX prenyl protease 2 (Homo sapiens, UniProt Q9Y256); assay: human Rce1 protease inhibitors, dose response, biochemical, yeast membranes, quenched-peptide fluorescence, cherry-pick (AID 588849)
T3 sequence (Q9Y256 whole entry): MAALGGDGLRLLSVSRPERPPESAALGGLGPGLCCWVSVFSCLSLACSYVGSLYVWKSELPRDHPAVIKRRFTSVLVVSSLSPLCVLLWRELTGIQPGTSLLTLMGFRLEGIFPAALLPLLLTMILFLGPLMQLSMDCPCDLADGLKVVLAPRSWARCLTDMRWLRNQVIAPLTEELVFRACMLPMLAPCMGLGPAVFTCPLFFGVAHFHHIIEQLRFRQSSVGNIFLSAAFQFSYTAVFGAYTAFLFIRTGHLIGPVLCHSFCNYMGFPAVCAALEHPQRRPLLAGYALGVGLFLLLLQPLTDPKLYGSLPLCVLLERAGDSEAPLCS

[23] = target: Voltage-gated inwardly rectifying potassium channel KCNH2 (Homo sapiens, UniProt Q12809); conditions: Potency;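 also: confirmatory quantitative high-throughput screen measuring inhibition of hERG channel activity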
Chain of Voltage-gated inwardly rectifying potassium channel KCNH2 (Q12809 whole entry): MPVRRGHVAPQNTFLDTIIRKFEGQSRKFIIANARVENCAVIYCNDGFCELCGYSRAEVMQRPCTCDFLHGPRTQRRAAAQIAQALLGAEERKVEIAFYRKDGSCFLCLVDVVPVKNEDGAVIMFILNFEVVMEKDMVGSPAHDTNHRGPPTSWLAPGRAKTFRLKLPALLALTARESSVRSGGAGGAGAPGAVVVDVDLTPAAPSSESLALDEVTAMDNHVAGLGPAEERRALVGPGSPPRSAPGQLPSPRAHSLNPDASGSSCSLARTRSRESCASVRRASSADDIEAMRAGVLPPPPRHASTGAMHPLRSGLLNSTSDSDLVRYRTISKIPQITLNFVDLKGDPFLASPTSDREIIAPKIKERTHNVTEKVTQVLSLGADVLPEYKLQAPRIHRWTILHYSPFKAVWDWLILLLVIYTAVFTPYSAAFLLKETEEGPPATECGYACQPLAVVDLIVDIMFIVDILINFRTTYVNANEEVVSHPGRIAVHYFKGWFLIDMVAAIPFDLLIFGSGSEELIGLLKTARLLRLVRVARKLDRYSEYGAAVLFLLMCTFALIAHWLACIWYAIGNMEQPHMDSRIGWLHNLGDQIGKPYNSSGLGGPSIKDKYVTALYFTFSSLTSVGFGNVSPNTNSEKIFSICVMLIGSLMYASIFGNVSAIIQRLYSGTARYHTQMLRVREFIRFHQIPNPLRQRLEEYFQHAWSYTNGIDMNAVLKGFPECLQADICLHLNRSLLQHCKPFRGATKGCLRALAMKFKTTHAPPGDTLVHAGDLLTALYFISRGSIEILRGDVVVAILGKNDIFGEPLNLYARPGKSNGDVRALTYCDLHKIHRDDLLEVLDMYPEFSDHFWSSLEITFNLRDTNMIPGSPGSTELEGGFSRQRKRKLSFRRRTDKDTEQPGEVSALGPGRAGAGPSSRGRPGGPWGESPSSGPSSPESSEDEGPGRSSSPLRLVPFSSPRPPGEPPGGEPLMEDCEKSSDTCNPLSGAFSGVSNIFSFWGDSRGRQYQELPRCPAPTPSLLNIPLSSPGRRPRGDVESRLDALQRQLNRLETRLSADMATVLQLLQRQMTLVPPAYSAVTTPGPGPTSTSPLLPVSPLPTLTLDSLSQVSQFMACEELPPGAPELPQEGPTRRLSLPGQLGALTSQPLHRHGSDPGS

## COc1ccc(NC2=Nc3ccccc3CC2)cc1
HeLa
  AC50: > 350 µM (inactive)

## CC(C)C(=O)NC(c1cccc([N+](=O)[O-])c1)c1ccc2cccnc2c1O (centres undefined)
[1]
  AC50: 0.924 µM (active)
[2]
  AC50: 2.7 µM (active)
HEK293 [3]
  AC50: 6.46 µM (active)
[4]
  IC50: > 119 µM (inactive)
Cells [5]
  EC50: > 350 µM (not active)
[6]
  AC50: 2.17 µM (active)
Exodeoxyribonuclease V
  IC50: > 119 µM (inactive)
[7]
  AC50: 2.57 µM (active)
Cells [8]
  EC50: 6.78 µM (active)

## Cc1onc(-c2ccccc2)c1C(=O)ON=C(N)c1ccc([N+](=O)[O-])o1
[4]
  IC50: 69.7 µM (inactive)
Cells [9]
  IC50: 6.29 µM (active)
[10]
  IC50: 11.1 µM (inactive)
[11]
  IC50: 35.9 µM (inactive)
Steroidogenic factor 1
  IC50: 2.03 µM (active)
[12]
  CC50: > 20 µM (active)
[13]
  CC50: > 40 µM (active)
Exodeoxyribonuclease V
  IC50: > 119 µM (inactive)

## O=C(CCCN1C(=O)/C(=C/c2ccccc2Cl)SC1=S)NNC(=O)c1ccccc1
HEK293 [14]
  IC50: > 20 µM (inactive)
[15]
  EC50: > 112 µM (not active)
Phospholipase A2
  IC50: 5.28 µM (active)
HEK293 [16]
  IC50: 3.13 µM (active)
HEK293 [17]
  IC50: 3.04 µM (active)
HEK293 [18]
  EC50: > 20 µM (inactive)
[19]
  EC50: > 20 µM (inactive)
Cysteine protease ATG4B
  IC50: 16.6 µM (active)
[20]
  EC50: > 112 µM (not active)
[21]
  IC50: > 80 µM (inactive)
HEK293 [22]
  IC50: > 20 µM (inactive)

## Cc1ccc(S(=O)(=O)Nc2ccccc2C(=O)NCC2CCCO2)cc1 (centres undefined)
CAAX prenyl protease 2
  AC50: 44.8 µM (active)

## CSCc1ccc(C(=O)Nc2cc(C)cc(C)c2)cc1
HeLa
  AC50: 161 µM (active)

## Cc1ccccc1S(=O)(=O)NC(=Nc1nc2ccccc2s1)c1ccccc1
HeLa
  AC50: 263 µM (active)

## COc1ccc2c3c1O[C@H]1C(=O)CC[C@@]4(O)C(C2)N(CC2CC2)CCC314 (some centres undefined)
[23]
  AC50: 17.8 µM (inconclusive)

## CN1[C@@H]2CC[C@H]1C[C@@H](OC(c1ccccc1)c1ccccc1N)C2 (some centres undefined) [AMINOBENZTROPINE]
[23]
  AC50: 11.2 µM (inconclusive)

From ChEMBL document CHEMBL1201862, “PubChem BioAssay data set” (2004)
